Results published in PubChem BioAssay AID1259407 (Chemical Carcinogenesis Research Information System (CCRIS), 2018).
Active and inactive are the calls of the source. How the calls were made is not given here.

Tested on: CCRIS mutagenicity, Ames/micronucleus/aberration tests
Experiment: CCRIS mutagenicity studies

Measured: mutagenic call

O=C(O)COc1cc(Cl)c(Cl)cc1Cl
inactive: End Point: IN VITRO CHROMOSOMAL ABERRATIONS, Test System: CHINESE HAMSTER OVARY CELLS, Metabolic Activation: NONE inactive; negative | Test System: AMES SALMONELLA TYPHIMURIUM, Strain/Indicator: TA97, Metabolic Activation: NONE, Method: STANDARD PLATE inactive; negative | Test System: AMES SALMONELLA TYPHIMURIUM, Strain/Indicator: TA97, Metabolic Activation: RAT, LIVER, S-9, AROCLOR 1254, Method: STANDARD PLATE inactive; negative | Test System: AMES SALMONELLA TYPHIMURIUM, Strain/Indicator: TA98, Metabolic Activation: NONE inactive; negative | Test System: AMES SALMONELLA TYPHIMURIUM, Strain/Indicator: TA98, Metabolic Activation: NONE, Method: STANDARD PLATE inactive; negative | Test System: AMES SALMONELLA TYPHIMURIUM, Strain/Indicator: TA98, Metabolic Activation: RAT, LIVER, S-9, AROCLOR 1254 inactive; negative | Test System: AMES SALMONELLA TYPHIMURIUM, Strain/Indicator: TA98, Metabolic Activation: RAT, LIVER, S-9, AROCLOR 1254, Method: STANDARD PLATE inactive; negative | Test System: AMES SALMONELLA TYPHIMURIUM, Strain/Indicator: TA100, Metabolic Activation: NONE inactive; negative | Test System: AMES SALMONELLA TYPHIMURIUM, Strain/Indicator: TA100, Metabolic Activation: NONE, Method: STANDARD PLATE inactive; negative | Test System: AMES SALMONELLA TYPHIMURIUM, Strain/Indicator: TA100, Metabolic Activation: RAT, LIVER, S-9, AROCLOR 1254 inactive; negative | Test System: AMES SALMONELLA TYPHIMURIUM, Strain/Indicator: TA100, Metabolic Activation: RAT, LIVER, S-9, AROCLOR 1254, Method: STANDARD PLATE inactive; negative | Test System: AMES SALMONELLA TYPHIMURIUM, Strain/Indicator: TA102, Metabolic Activation: NONE inactive; negative | Test System: AMES SALMONELLA TYPHIMURIUM, Strain/Indicator: TA102, Metabolic Activation: NONE, Method: STANDARD PLATE inactive; negative | Test System: AMES SALMONELLA TYPHIMURIUM, Strain/Indicator: TA102, Metabolic Activation: RAT, LIVER, S-9, AROCLOR 1254 inactive; negative | Test System: AMES SALMONELLA TYPHIMURIUM, Strain/Indicator: TA102, Metabolic Activation: RAT, LIVER, S-9, AROCLOR 1254, Method: STANDARD PLATE inactive; negative | Test System: AMES SALMONELLA TYPHIMURIUM, Strain/Indicator: TA104, Metabolic Activation: NONE inactive; negative | Test System: AMES SALMONELLA TYPHIMURIUM, Strain/Indicator: TA104, Metabolic Activation: RAT, LIVER, S-9, AROCLOR 1254 inactive; negative
active: End Point: IN VITRO CHROMOSOMAL ABERRATIONS, Test System: CHINESE HAMSTER OVARY CELLS, Metabolic Activation: RAT, LIVER, S-9, AROCLOR 1254 active; positive; precipitation occurred at all doses

CC(=O)NNC(=O)c1ccccn1
inactive: Test System: AMES SALMONELLA TYPHIMURIUM, Strain/Indicator: TA98, Metabolic Activation: HAMSTER, LIVER, S-9, AROCLOR 1254, Method: PREINCUBATION inactive; negative | Test System: AMES SALMONELLA TYPHIMURIUM, Strain/Indicator: TA98, Metabolic Activation: NONE, Method: PREINCUBATION inactive; negative | Test System: AMES SALMONELLA TYPHIMURIUM, Strain/Indicator: TA98, Metabolic Activation: RAT, LIVER, S-9, AROCLOR 1254, Method: PREINCUBATION inactive; negative | Test System: AMES SALMONELLA TYPHIMURIUM, Strain/Indicator: TA100, Metabolic Activation: HAMSTER, LIVER, S-9, AROCLOR 1254, Method: PREINCUBATION inactive; negative | Test System: AMES SALMONELLA TYPHIMURIUM, Strain/Indicator: TA100, Metabolic Activation: NONE, Method: PREINCUBATION inactive; negative | Test System: AMES SALMONELLA TYPHIMURIUM, Strain/Indicator: TA100, Metabolic Activation: RAT, LIVER, S-9, AROCLOR 1254, Method: PREINCUBATION inactive; negative | Test System: AMES SALMONELLA TYPHIMURIUM, Strain/Indicator: TA1535, Metabolic Activation: HAMSTER, LIVER, S-9, AROCLOR 1254, Method: PREINCUBATION inactive; negative | Test System: AMES SALMONELLA TYPHIMURIUM, Strain/Indicator: TA1535, Metabolic Activation: NONE, Method: PREINCUBATION inactive; negative | Test System: AMES SALMONELLA TYPHIMURIUM, Strain/Indicator: TA1535, Metabolic Activation: RAT, LIVER, S-9, AROCLOR 1254, Method: PREINCUBATION inactive; negative | Test System: AMES SALMONELLA TYPHIMURIUM, Strain/Indicator: TA1537, Metabolic Activation: HAMSTER, LIVER, S-9, AROCLOR 1254, Method: PREINCUBATION inactive; negative | Test System: AMES SALMONELLA TYPHIMURIUM, Strain/Indicator: TA1537, Metabolic Activation: NONE, Method: PREINCUBATION inactive; negative | Test System: AMES SALMONELLA TYPHIMURIUM, Strain/Indicator: TA1537, Metabolic Activation: RAT, LIVER, S-9, AROCLOR 1254, Method: PREINCUBATION inactive; negative
